Laboratory results reported in patent US6576656B1, “Oxindole derivative” (Sumitomo Pharmaceuticals Co., Ltd., priority 1998, dated 2003).
Like-named read-outs stand apart in the source and are kept apart here.

Assays:
[1] = tested on: rat pituitary cells; test: growth hormone releasing activity from rat pituitary cells in vitro (GH measured by RIA); assay type: cell-based; conditions: read-out: EC50 (GH releasing efficacy)
Protocol: Compounds of the present invention were evaluated for their growth hormone releasing activity from rat pituitary cells in vitro in accordance with the method described in the literature (R. G. Smith et al., Science, 260, 1640 (1993)). Pituitary glands removed from 7-week-old Wistar/ST male rats were washed with HBSS (Hank's balanced salt solution) three times and minced into small pieces (ca. 1 mm^2) using a pair of scissors. […] An enzyme solution (0.1 mL per a pituitary gland) was added and the cell dispersion was carried out in a water bath at 37° C. for ca 20-30 min, during which time the digested mixture was mixed by successive up-take and down-take of the suspension using a pipette, every 5 minutes. The resulting cell suspension was centrifuged at 1200 rpm for 2-3 min at room temperature and the supernatant fluid was discarded. A cultured medium was added and the resulting cell suspension was again centrifuged at 1200 rpm for 2-3 min at room temperature and the supernatant fluid was discarded. This procedure was repeated another 2 times. […] The culture medium was discarded and an assay medium (0.1 mL) was added. The incubation was continued for 1.5 h and the cells were washed with the assay medium. […] The supernatant fluid was recovered and the GH content present was measured by RIA (radioimmunoassay). An aliquot of the solution was diluted to 0.05 mL with a RIA buffer which consisted of PBS (pH 7.3) containing 1% BSA, 0.1% NaN3 and 25 mM EDTA. […] Cell membrane fractions containing protein A were added and the mixture was allowed to stand for 20 min and centrifuged. The supernatant fluid was removed and the precipitates were washed with the RIA buffer. The ^125I content in the precipitates was measured. The GH concentration in the sample was calculated from the standard curve made by using the standard GH sample. The EC50 values of the test compounds were determined using recurrent calculation from the following equation, where X is the concentration of the test compound, Y is the GH concentration at the given assay, and B is the EC50 value. C means recurrently calculated GH concentration in the absence of the test compound and A+C means recurrently calculated GH concentration when a maximum amount of the test compound is present. […] The culture medium used here consisted of DMEM (Dulbecco's Modified Eagle's Medium) containing 10% horse serum, 2.5% fetal bovine serum, 1% nonessential amino acids, 0.01% streptomycin and penicillin (100 IU/mL). The cultured medium described above was adjusted to pH 7.3 by adding a 25 mM HEPES buffer and the resulting solution was used as the assay medium. […] The resulting mixture was used as the test compound solution. […]

[2] = increase in the weight of rats after oral administration for 9 days; assay type: in vivo, rat; conditions: 10 mg/kg/day×2 orally for 9 days, 11-week-old F 344/N rats (6/group); p<0.01; distilled water group 13.5±2.3 g
Protocol: The compound of Example 74 (10 mg/kg/day×2) were administered orally to 11-week-old F 344/N rats (6/group) for 9 days and increase in the weight of each rat was measured.

Row | Structure (SMILES) | EC50 ([1]; Rattus norvegicus, 0.25 h) | EC50 ([1]; cultured pituitary cells of 7-week-old Wistar/ST male rats, 15 min at 37° C., GH by RIA) | increase in the weight [2]
1 | CCN(CC)CCN1C(=O)C(O)(c2ccccc2F)c2c(Br)cccc21 (centres unmarked) [Example 21, 4-Bromo-1-(2-diethylaminoethyl)-3-hydroxy-3-(2-fluorophenyl)oxindole] | 4 nM | – | –
2 | CCN(CC)CCN1C(=O)C(O)(c2ccc(Cl)cc2Cl)c2c1cc(C(N)=O)cc2C(F)(F)F (centres unmarked) [Example 91, 1-(2-Diethylaminoethyl)-4-trifuoromethyl-6-carbamoyl-3-hydroxy-3-(2,4-dichlorophenyl)oxindole] | – | 1.2 nM | –
3 | CCN(CC)CCN1C(=O)C(O)(c2ccccc2Cl)c2c1cc(C#CCCC(=O)N1CCOCC1)cc2C(F)(F)F (centres unmarked) [Example 70, 1-(2-Diethylaminoethyl)-4-trifluoromethyl-6-(4-morpholinocarbonyl-1-butynyl)-3-hydroxy-3-(2-chlorophenyl)oxindole] | 5 nM | – | –
4 | CCN(CC)CCN1C(=O)C(O)(c2ccccc2Cl)c2c1cc(C(N)=O)cc2C(F)(F)F (single isomer, unassigned; (+)) [Example 74, (+)-1-(2-Diethylaminoethyl)-4-trifluoromethyl-6-carbamoyl-3-hydroxy-3-(2-chlorophenyl)oxindole] | 0.5 nM | – | 19.5 ± 2.1 g
